In US11883524B2, “Cosmetic compositions” (MARY KAY INC., priority 2018, dated 2024):

How the values were obtained:
MMP3 = biological target: T1, MMP3 (Homo sapiens, UniProt P08254); test: Inhibition of matrix metalloproteinase enzyme activity (MMP3) assay; format: biochemical
T1 construct: purchased BioMol International AK-400
Description: Inhibition of Matrix Metalloproteinase Enzyme Activity (MMP3) Assay: MMPs are extracellular proteases that play a role in many normal and disease states by virtue of their broad substrate specificity. MMP3 substrates include collagens, fibronectins, and laminin; while MMP9 substrates include collagen VII, fibronectins and laminin. Using Colorimetric Drug Discovery kits from BioMol International for MMP3 (AK-400) and MMP-9 (AK-410), this assay was designed to measure protease activity of MMPs using a thiopeptide as a chromogenic substrate (Ac-PLG-[2-mercapto-4-methyl-pentanoyl]-LG-OC2H5)5,6. The MMP cleavage site peptide bond was replaced by a thioester bond in the thiopeptide. Hydrolysis of this bond by an MMP produced a sulfhydryl group, which reacted with DTNB [5,5′-dithiobis(2-nitrobenzoic acid), Ellman's reagent] to form 2-nitro-5-thiobenzoic acid, which was detected by its absorbance at 412 nm (ε=13,600 M-1 cm-1 at pH 6.0 and above 7). Tetrahexyldecyl ascorbate was assayed.

[1] = tested on: procollagen peptide production by human epidermal fibroblasts; test: Increase of collagen stimulation (procollagen peptide ELISA); format: cell-based; settings: human adult epidermal fibroblasts, treated 3 days
Description: Increase of Collagen Stimulation: Collagen is an extracellular matrix protein critical for skin structure. Increased synthesis of collagen helps improve skin firmness and elasticity. This bioassay was used to examine the effect of tetrahexyldecyl ascorbate, and/or Phyllanthus emblica fruit extract on the production of procollagen peptide (a precursor to collagen) by human epidermal fibroblasts. The endpoint of this assay was a spectrophotometric measurement that reflects the presence of procollagen peptide and cellular viability. The assay employed the quantitative sandwich enzyme immunoassay technique whereby a monoclonal antibody specific for procollagen peptide had been pre-coated onto a microplate. Standards and samples were pipetted into the wells and any procollagen peptide present was bound by the immobilized antibody. […] Following a wash to remove any unbound antibody-enzyme reagent, a substrate solution was added to the wells and color develops in proportion to the amount of procollagen peptide bound in the initial step using a microplate reader for detection at 450 nm. The color development was stopped and the intensity of the color was measured. […] Following incubation, cell culture medium was collected and the amount of procollagen peptide secretion quantified using a sandwich enzyme linked immuno-sorbant assay (ELISA) from Takara (#MK101).

T1 sequence (P08254 100-272 limits assumed): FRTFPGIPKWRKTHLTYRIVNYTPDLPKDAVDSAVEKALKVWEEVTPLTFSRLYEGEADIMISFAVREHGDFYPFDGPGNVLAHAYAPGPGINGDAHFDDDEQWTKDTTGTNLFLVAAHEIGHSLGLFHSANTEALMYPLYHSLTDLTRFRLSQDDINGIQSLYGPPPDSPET

In the case of `CCCCCCCCC(CCCCCC)C(=O)OC[C@H](OC(=O)C(CCCCCC)CCCCCCCC)[C@H]1OC(=O)C(OC(=O)C(CCCCCC)CCCCCCCC)=C1OC(=O)C(CCCCCC)CCCCCCCC` (some centres unmarked) [Tetrahexyldecyl ascorbate], the “Inhibition of MMP3 activity” value (MMP3) is reported as −38% and the Increase of collagen [1] is reported as “+50%”.
